From patent publication US20200147116A1, “Use of Paeoniflorin-6'-O-benzenesulfonate in treatment of Sjögren's syndrome” (NINGBO ZHIMING BIOTECHNOLOGY CO., LTD., priority 2017, published 2020)
Marks after values point to notes of the source that are not given here.

What was measured:
Type in all cases: in vivo
spleen CD11c+ MHC-II+ DC = assay: Spleen CD11c+ MHC-II+ DC in SS model mice (FIG. 9)
Text: FIG. 9 Effects of CP-25 on spleen CD11c^+ MHC-II^+ DC in SS model mice.

[1] = tested on: spleen CD4+ IL-17A+ T lymphocytes; assay: Spleen CD4+ IL-17A+ T lymphocytes in NOD model mice (FIG. 13)
Text: FIG. 13 Effects of CP-25 on spleen CD4^+ IL-17A^+ T lymphocytes in NOD model mice.

[2] = tested on: spleen CD19+ CD27+ B lymphocytes; assay: Spleen CD19+ CD27+ B lymphocytes in SS model mice (FIG. 7)
Text: FIG. 7 Effects of CP-25 on spleen CD19^+ CD27^+ B lymphocytes in SS model mice.

NOD mice = assay: Saliva amount in NOD mice; conditions: for Saliva amount in NOD mice, Pre-administration: baseline before administration
Method: Before measurement, mice were anesthetized via intraperitoneal injection of 0.05 ml of 2.4% pentobarbital sodium, and the satisfactory anesthesia was smooth breathing, corneal reflex disappearance and limb muscle relaxation. After complete anesthesia, a mouse was placed in slightly tilted trendelenburg position, and its body was kept warm using the heater. The mouse was injected intraperitoneally with 0.1 ml of 0.025 mg/ml Pilocarpine, and 5 min later, a weighed cotton ball was placed in the mouth of the mouse for 10 min. After taking the ball out, the saliva weight of mice was measured by the wet weight method.
Therapeutic effects of on Sjögren's syndrome CP-25 in NOD mice.

spleen T lymphocytes = assay: Spleen T lymphocyte proliferation in NOD model mice (FIG. 12A)
Text: FIG. 12 Effects of CP-25 on spleen T and B lymphocyte proliferation in NOD model mice.
A: T lymphocytes; B: B lymphocytes

[3] = tested on: Sjögren's syndrome model mice (C57BL/6 female mice); assay: Saliva amount in induced Sjögren's syndrome model mice (wet weight method after pilocarpine); conditions: for Saliva amount in SS mice, One week after administration / Saliva amount in SS mice, Two weeks after administration / Saliva amount in SS mice, Pre-administration: Example 1, C57BL/6 SS mice; for Saliva amount in SS mice, Pre-administration / Saliva amount, Pre-administration: baseline before administration; for Saliva amount, One week after: one week of administration; for Saliva amount, Two weeks after: two weeks of administration
Method: […] Water intake, saliva amount and submaxillary gland pathological analysis and score were determined respectively, on the day before administration, the 7th day and 14th day after administration. The therapeutic effects of CP-25 on Sjögren's syndrome were evaluated by comparison of changes of each index before and after treatment. 2 Sjögren's syndrome model mice: C57BL/6 female mice housed in a SPF environment with successful modeling (The animal model was made via repeated multi-point intracutaneous injection of submaxillary gland homogenate of homologous mice to tail and back of mice). The animal model was made via repeated multi-point intracutaneously injection of submaxillary gland homogenate of homologous mice to tail and back of mice, and the mice with successful modeling were randomly assigned to each group according to comprehensive conditions of mice. At the same time, the average weight and status of each group of mice should be as close as possible. […] […] High dose of said pharmaceutical should be incubated for half an hour before use. Before measurement, mice were anesthetized via intraperitoneal injection of 0.05 ml of 2.4% pentobarbital sodium, and the satisfactory anesthesia was smooth breathing, corneal reflex disappearance and limb muscle relaxation. After complete anesthesia, a mouse was placed in slightly tilted trendelenburg position, and its body was kept warm using the heater. The mouse was injected intraperitoneally with 0.1 ml of 0.025 mg/ml Pilocarpine, and 5 min later, a weighed cotton ball was placed in the mouth of the mouse for 10 min. After taking the ball out, the saliva weight of mice was measured by the wet weight method.

[4] = tested on: spleen CD4+ CD25+FOXP3+ T lymphocytes; assay: Spleen CD4+ CD25+ FOXP3+ T lymphocytes in SS model mice (FIG. 5, 6); conditions: FIG. 6
Text: FIG. 5 Effects of CP-25 on spleen CD4^+ CD25^+FOXP3^+ T lymphocytes in SS model mice.
FIG. 6 Effects of CP-25 on spleen CD4^+ CD25^+FOXP3^+ T lymphocytes in SS model mice.

[5] = tested on: submaxillary gland in SS mice; assay: Histopathological examination and grading of submaxillary gland in SS mice (H&E, Chisholm-Mason scale); conditions: for Score: mice with submaxillary gland pathology Grade 0 / Score: mice with submaxillary gland pathology Grade I / Score: mice with submaxillary gland pathology Grade II / Score: mice with submaxillary gland pathology Grade III / Score: mice with submaxillary gland pathology Grade IV: two weeks of administration, four mice of each group
Method: Mice were sacrificed after two weeks of administration, and then submaxillary glands of four mice of each group were removed and pathologically observed. At first, the submaxillary gland should be fixed in 10% buffered formalin for 24 h, followed by washing, dehydration and clearing, wax-filling, embedding, sectioning and finally H&E staining. […] Results were graded pathologically.
Note: The histological findings graded of submaxillary glands according to the Chisholm-Mason scale; grade 0, absence of lymphocytic infiltration; grade I, slight lymphocytic infiltration; grade II, moderate lymphocytic infiltration; grade III, one focus of lymphocytic infiltration per 4 mm^2 tissue; grade IV, more than one focus of lymphocytic infiltration per 4 mm^2 tissue (Note: One focus of lymphocytic infiltration has been defined as an aggregate of 50 or more lymphocytes gathered in the labial gland stroma per 4 mm^2 of tissue.

spleen CD11c+ CD80+ DC = assay: Spleen CD11c+ CD80+ DC in SS model mice (FIG. 8)
Text: FIG. 8 Effects of CP-25 on spleen CD11c^+ CD80^+ DC in SS model mice.

[6] = tested on: spleen CD4+ IL-17A+ T lymphocytes; assay: Spleen CD4+ IL-17A+ T lymphocytes in SS model mice (FIG. 4)
Text: FIG. 4 Effects of CP-25 on spleen CD4^+ IL-17A^+ T lymphocytes in SS model mice.

[7] = SS model mice, 17.5 mg/kg by gavage
[8] = SS model mice, 35 mg/kg by gavage

SMILES: C[C@@]12C[C@@]3(O)O[C@H](O1)C1(COC(=O)c4ccccc4)[C@@H]3CC12OC1OC(COS(=O)(=O)c2ccccc2)C(O)C(O)C1O (stereo partly drawn) [CP-25, Paeoniflorin-6′-O-benzenesulfonate]
- Expression of surface molecular MHC-II+ on spleen CD11c+ DC (spleen CD11c+ MHC-II+ DC): significantly inhibit
- Ratio of spleen CD4+ IL-17A+ Th17 lymphocytes [1]: significantly inhibit
- Ratio of spleen CD19+ CD27+ B lymphocytes [2]: significantly increase
- Saliva amount in NOD mice, One week after administration (NOD mice; 17.5 mg/kg): 15.20 ± 1.04 mg/each mouse/10 min
- Saliva amount in NOD mice, Two weeks after administration (NOD mice; 17.5 mg/kg): 14.25 ± 1.46 mg/each mouse/10 min
- Saliva amount in NOD mice, One week after administration (NOD mice; 35 mg/kg): 15.60 ± 1.50 mg/each mouse/10 min
- Saliva amount in NOD mice, Two weeks after administration (NOD mice; 35 mg/kg): 15.25 ± 1.36 mg/each mouse/10 min
- Saliva amount in NOD mice, One week after administration (NOD mice; 70 mg/kg): 18.20 ± 1.58^#Δ mg/each mouse/10 min
- Saliva amount in NOD mice, Two weeks after administration (NOD mice; 70 mg/kg): 18.25 ± 1.50 mg/each mouse/10 min
- Saliva amount in NOD mice, Pre-administration (NOD mice; dose group 17.5 mg/kg): 19.50 ± 1.38 mg/each mouse/10 min
- Saliva amount in NOD mice, Pre-administration (NOD mice; dose group 35 mg/kg): 19.33 ± 3.20 mg/each mouse/10 min
- Saliva amount in NOD mice, Pre-administration (NOD mice; dose group 70 mg/kg): 19.51 ± 1.87 mg/each mouse/10 min
- Saliva amount (in words) (NOD mice; NOD model mice, Example 4): significantly increase
- Onset time of curative effects versus comparators (NOD mice; NOD model mice, Example 4, saliva amount): earlier than that of TGP, or Pae
- Spleen T lymphocyte proliferation (spleen T lymphocytes): significantly inhibit
- Saliva amount in SS mice, One week after administration ([3]; 17.5 mg/kg): 17.83 ± 2.14 mg/each mouse/10 min
- Saliva amount in SS mice, Two weeks after administration ([3]; 17.5 mg/kg): 17.67 ± 2.07^ mg/each mouse/10 min
- Saliva amount in SS mice, One week after administration ([3]; 35 mg/kg): 18.33 ± 1.97 mg/each mouse/10 min
- Saliva amount in SS mice, Two weeks after administration ([3]; 35 mg/kg): 23.17 ± 2.64 mg/each mouse/10 min
- Saliva amount in SS mice, One week after administration ([3]; 70 mg/kg): 25.67 ± 1.63 mg/each mouse/10 min
- Saliva amount in SS mice, Two weeks after administration ([3]; 70 mg/kg): 26.83 ± 1.47 mg/each mouse/10 min
- Saliva amount in SS mice, Pre-administration ([3]; dose group 17.5 mg/kg): 22.67 ± 3.27 mg/each mouse/10 min
- Saliva amount in SS mice, Pre-administration ([3]; dose group 35 mg/kg): 23.01 ± 2.37 mg/each mouse/10 min
- Saliva amount in SS mice, Pre-administration ([3]; dose group 70 mg/kg): 22.75 ± 3.67 mg/each mouse/10 min
- Saliva amount, One week after [3, 7]: 17.83 ± 2.14 mg/10 min
- Saliva amount, Two weeks after [3, 7]: 17.67 ± 2.07^ mg/10 min
- Saliva amount, One week after [3, 8]: 18.33 ± 1.97 mg/10 min
- Saliva amount, Two weeks after [3, 8]: 23.17 ± 2.64 mg/10 min
- Saliva amount, One week after ([3]; SS model mice, 70 mg/kg): 25.67 ± 1.63 mg/10 min
- Saliva amount, Two weeks after ([3]; SS model mice, 70 mg/kg): 26.83 ± 1.47 mg/10 min
- Saliva amount, Pre-administration ([3]; SS model mice, dose group 17.5 mg/kg by gavage): 22.67 ± 3.27 mg/10 min
- Saliva amount, Pre-administration ([3]; SS model mice, dose group 35 mg/kg by gavage): 23.01 ± 2.37 mg/10 min
- Saliva amount, Pre-administration ([3]; SS model mice, dose group 70 mg/kg): 22.75 ± 3.67 mg/10 min
- Curative effect judged on saliva amount after one week of medication ([3]; SS model mice, high dose of CP-25, TGP, Pae, HCQ at the doses of Table 3): had curative effects
- Efficacy judged on saliva amount with medication extended to two weeks ([3]; SS model mice, two weeks of medication): more significant efficacy
- Saliva amount (in words) ([3]; Sjögren's syndrome mice, Example 1): significantly increase
- Onset time of curative effects versus comparators ([3]; Sjögren's syndrome mice, Example 1, saliva amount): earlier than that of TGP, Pae or HCQ
- Ratio of CD4+ CD25+FOXP3+ Treg lymphocytes [4]: increase
- Score: mice with submaxillary gland pathology Grade 0 ([5]; 17.5 mg/kg): 0
- Score: mice with submaxillary gland pathology Grade I ([5]; 17.5 mg/kg): 0
- Score: mice with submaxillary gland pathology Grade II ([5]; 17.5 mg/kg): 0
- Score: mice with submaxillary gland pathology Grade III ([5]; 17.5 mg/kg): 1
- Score: mice with submaxillary gland pathology Grade IV ([5]; 17.5 mg/kg): 3
- Score: mice with submaxillary gland pathology Grade 0 ([5]; 35 mg/kg): 0
- Score: mice with submaxillary gland pathology Grade I ([5]; 35 mg/kg): 0
- Score: mice with submaxillary gland pathology Grade II ([5]; 35 mg/kg): 0
- Score: mice with submaxillary gland pathology Grade III ([5]; 35 mg/kg): 1
- Score: mice with submaxillary gland pathology Grade IV ([5]; 35 mg/kg): 3
- Score: mice with submaxillary gland pathology Grade 0 ([5]; 70 mg/kg): 0
- Score: mice with submaxillary gland pathology Grade I ([5]; 70 mg/kg): 0
- Score: mice with submaxillary gland pathology Grade II ([5]; 70 mg/kg): 0
- Score: mice with submaxillary gland pathology Grade III ([5]; 70 mg/kg): 3
- Score: mice with submaxillary gland pathology Grade IV ([5]; 70 mg/kg): 1^#
- Pathological changes in submaxillary gland ([5]; Example 3, dose not given): apparently ameliorate the pathological changes
- Pathological changes in submaxillary glands (H&E staining score, rank-sum test) ([5]; high dose of CP-25): apparently ameliorate the pathological changes
- Expression of surface molecular CD80+ on spleen CD11c+ DC (spleen CD11c+ CD80+ DC): significantly inhibit
- Ratio of CD4+ IL-17A+ Th17 lymphocytes [6]: significantly inhibit
